Reference: patent US10017492B2 (KANGPU BIOPHARMACEUTICALS, LTD., priority 2014, dated 2018)
Read-outs that look alike come from different tables or passages of the source.

Experiments:
TNF-α = TNF-α activity inhibiting assay (LPS-stimulated peripheral blood, ELISA); assay type: cell-based, human; conditions: compound 100 nM, diluted peripheral blood of healthy volunteers, LPS 10 ng/mL, 6 hours; for inhibition at 0.1 µM: Homo sapiens, read-out: Inhibitory Rate on TNF-α (%)
Experimental: TNF-α Activity Inhibiting Assay
Peripheral blood from healthy volunteers was collected and collected with EDTA anticoagulant tubes. After being diluted 5-fold with 1640 medium (Gibco, catalog number 11875-093, USA), the blood was added to 96-well cell culture plates (Costar, catalog number 3599, USA) and then treated with 10 μL solution of the compound of general formula (I) of the present invention in DMSO (Sigma, catalog number D2650, USA). The final concentration of the compound was 100 nM, and the final concentration of DMSO was 0.2%. After incubation for 60 minutes in an incubator at 37° C. under 5% CO2, 10 μL LPS (Sigma, catalog number L-2880, USA) was added to the reaction system, and the final concentration was 10 ng/mL. After further culturing for 6 hours in the incubator at 37° C. under 5% CO2, the supernatant was collected. The content of TNF-α was determined by ELISA (BD Biosciences, catalog number 555212, USA). Absorbance was detected at OD450 nm with a microplate reader, with OD 650 nm as reference. The control, a solution containing 0.2% DMSO medium, was as 0% inhibition. Raw data and standard curves were recorded. The four-parameter drug inhibition curve was plotted by XL-fit software and the inhibition rate of each compound was calculated, as shown in Table 1.

[1] = test system: MM.1S cells (myeloma cells); experiment: Cell proliferation assay (MTS), MM.1S myeloma cells; assay type: cell-based; conditions: 72 hours, read-out: IC50 values of MMIS Inhibition
Experimental: MM.1S cells (myeloma cells) (ATCC, catalog number CRL-2974) were seeded at 1.8×10^3 per well to a 96-well culture plate containing […] (Gibco, catalog number A10491-01), and were incubated in an incubator for 24 hours at 37° C. under 5% CO2. Compounds were prepared as 20 mM stock solutions with DMSO (Sigma, catalog number D2650), and were diluted with the medium to the desired concentration (the final concentration of DMSO was 0.5%) and then were added to each well, incubated in an incubator for 72 hours at 37° C. under 5% CO2. Then, 20 μL MTS (Promega, catalog number G3581) was added to each well, and further incubated for 1-4 hours in an incubator at 37° C. under 5% CO2. OD490 nm was detected with OD650 nm as reference. The control, a solution containing 0.5% DMSO medium, was as 0% inhibition. GraphPad Prism 5 was used, slope was allowed to change to make the dose-effect curve and IC50 values were calculated, shown in table 2 for details.

| SMILES | inhibition at 0.1 µM (TNF-α) | IC50 ([1]; Homo sapiens, MM1.S) | Inhibitory Rate on TNF-α (%) (TNF-α) | IC50 [1] |
| --- | --- | --- | --- | --- |
| CNC(=O)Oc1ccc(F)c(CNc2cccc3c2CN(C2CCC(=O)NC2=O)C3=O)c1 (centres unmarked) [Compound A371, 3-(((2-(2,6-Dioxopiperidin-3-yl)-1-oxoisoindolin-4-yl)amino)methyl)-4-fluorophenyl methylcarbamate] | ≥ 50% | < 300 nM | – | – |
| CNc1cccc(CNc2cccc3c2CN(C2CCC(=O)NC2=O)C3=O)c1F (centres unmarked) [Compound A372, 3-(4-((2-fluoro-3-(methylamino)benzyl)amino)-1-oxoisoindolin-2-yl)piperidine-2,6-dione] | ≥ 50% | < 300 nM | – | – |
| [2H][C@]1(N2Cc3c(NCc4ccc(CN5CCOCC5)cc4)cccc3C2=O)CCC(=O)NC1=O [Compound A373, (S)-3-deuterium-3-(4-((4-(morpholinomethyl)benzyl)amino)-1-oxoisoindolin-2-yl)piperidine-2,6-dione] | ≥ 50% | < 300 nM | – | – |
| O=C1CCC(N2Cc3c(NCc4cc(OCCOC(=O)N5CCCC5)ccc4F)cccc3C2=O)C(=O)N1 (centres unmarked) [Compound A374, 2-(3-(((2-(2,6-dioxopiperidin-3-yl)-1-oxoisoindolin-4-yl)amino)methyl)-4-fluorophenoxy)ethyl pyrrolidine-1-carboxylate] | ≥ 50% | < 300 nM | – | – |
| O=C1CCC(N2Cc3c(NCc4cc(OCCO)ccc4F)cccc3C2=O)C(=O)N1 (centres unmarked) [Compound A375, 3-(4-((2-fluoro-5-(2-hydroxyethoxy)benzyl)amino)-1-oxoisoindolin-2-yl)piperidine-2,6-dione] | < 50% | ≥ 300 nM | – | – |
| O=C1CCC(N2Cc3c(NCc4cc(OCCN5CCCC5)ccc4F)cccc3C2=O)C(=O)N1 (centres unmarked) [Compound A376, 3-(4-((2-fluoro-5-(2-(pyrrolidin-1-yl)ethoxy)benzyl)amino)-1-oxoisoindolin-2-yl)piperidine-2,6-dione] | ≥ 50% | < 300 nM | – | – |
| CN1CCN(CCOc2ccc(F)c(CNc3cccc4c3CN(C3CCC(=O)NC3=O)C4=O)c2)CC1 (centres unmarked) [Compound A377, 3-(4-((2-fluoro-5-(2-(4-methylpiperazin-1-yl)ethoxy)benzyl)amino)-1-oxoisoindolin-2-yl)piperidine-2,6-dione] | < 50% | ≥ 300 nM | – | – |
| CN(C)C(=O)Oc1ccc(F)c(CNc2cccc3c2CN(C2CCC(=O)NC2=O)C3=O)c1 (centres unmarked) [Compound A378, 3-(((2-(2,6-dioxopiperidin-3-yl)-1-oxoisoindolin-4-yl)amino)methyl)-4-fluorophenyl dimethylcarbamate] | < 50% | ≥ 300 nM | – | – |
| [2H][C@]1(N2Cc3c(OCc4cc(OC)ccc4F)cccc3C2=O)CCC(=O)NC1=O [Compound A379, (S)-3-deuterium-3-(4-((2-fluoro-5-methoxybenzyl)oxy)-1-oxoisoindolin-2-yl)piperidine-2,6-dione] | < 50% | < 300 nM | – | – |
| [2H][C@]1(N2Cc3c(OCc4cccc(OC)c4F)cccc3C2=O)CCC(=O)NC1=O [Compound A380, (S)-3-deuterium-3-(4-((2-fluoro-3-methoxybenzyl)oxy)-1-oxoisoindolin-2-yl)piperidine-2,6-dione] | < 50% | < 300 nM | – | – |
| Nc1cccc(CNc2cccc3c2CN(C2CCC(=O)NC2=O)C3=O)c1F (centres unmarked) [Compound A384, 3-(4-((3-amino-2-fluorobenzyl)amino)-1-oxoisoindolin-2-yl)piperidine-2,6-dione] | ≥ 50% | < 300 nM | – | – |
| CNc1cccc(COc2cccc3c2CN(C2CCC(=O)NC2=O)C3=O)c1F (centres unmarked) [Compound A385, 3-(4-((2-fluoro-3-(methylamino)benzyl)oxy)-1-oxoisoindolin-2-yl)piperidine-2,6-dione] | ≥ 50% | < 300 nM | – | – |
| CNc1ccc(F)c(CNc2cccc3c2CN(C2CCC(=O)NC2=O)C3=O)c1 (centres unmarked) [Compound A387, 3-(4-((2-fluoro-5-(methylamino)benzyl)amino)-1-oxoisoindolin-2-yl)piperidine-2,6-dione] | ≥ 50% | < 300 nM | – | – |
| CC(=O)Nc1cccc(CNc2cccc3c2CN(C2CCC(=O)NC2=O)C3=O)c1F (centres unmarked) [Compound A388, N-(3-(((2-(2,6-dioxopiperidin-3-yl)-1-oxoisoindolin-4-yl)amino)methyl)-2-fluorophenyl)acetamide] | ≥ 50% | < 300 nM | – | – |
| NS(=O)(=O)c1cccc(CNc2cccc3c2CN(C2CCC(=O)NC2=O)C3=O)c1F (centres unmarked) [Compound A389, 3-(((2-(2,6-dioxopiperidin-3-yl)-1-oxoisoindolin-4-yl)amino)methyl)-2-fluorobenzenesulfonamide] | < 50% | < 300 nM | – | – |
| CNc1ccc(F)c(COc2cccc3c2CN(C2CCC(=O)NC2=O)C3=O)c1 (centres unmarked) [Compound A390, 3-(4-((2-fluoro-5-(methylamino)benzyl)oxy)-1-oxoisoindolin-2-yl)piperidine-2,6-dione] | ≥ 50% | ≥ 300 nM | – | – |
| Nc1ccc(F)c(CNc2cccc3c2CN(C2CCC(=O)NC2=O)C3=O)c1 (centres unmarked) [Compound A391, 3-(4-((5-amino-2-fluorobenzyl)amino)-1-oxoisoindolin-2-yl)piperidine-2,6-dione] | ≥ 50% | ≥ 300 nM | – | – |
| [2H][C@@]1(N2Cc3c(OCc4ccc(OC)cc4F)cccc3C2=O)CCC(=O)NC1=O [Compound A392, (R)-3-deuterium-3-(4-((2-fluoro-4-methoxybenzyl)oxy)-1-oxoisoindolin-2-yl)piperidine-2,6-dione] | ≥ 50% | < 300 nM | – | – |
| [2H][C@]1(N2Cc3c(OCc4ccc(OC)cc4F)cccc3C2=O)CCC(=O)NC1=O [Compound A393, (S)-3-deuterium-3-(4-((2-fluoro-4-methoxybenzyl)oxy)-1-oxoisoindolin-2-yl)piperidine-2,6-dione] | < 50% | < 300 nM | – | – |
| O=C1CCC(N2Cc3c(NCc4ccc(O)cc4F)cccc3C2=O)C(=O)N1 (centres unmarked) [Compound A396, 3-(4-((2-fluoro-4-hydroxybenzyl)amino)-1-oxoisoindolin-2-yl)piperidine-2,6-dione] | < 50% | ≥ 300 nM | – | – |
| O=C1CCC(N2Cc3c(OCc4cc(CN5CCOCC5)ccc4F)cccc3C2=O)C(=O)N1 (centres unmarked) [Compound A398, 3-(4-((2-fluoro-5-(morpholinomethyl)benzyl)oxy)-1-oxoisoindolin-2-yl)-piperidine-2,6-dione] | ≥ 50% | < 300 nM | – | – |
| [2H][C@]1(N2Cc3c(NCc4cc(CN5CCOCC5)ccc4F)cccc3C2=O)CCC(=O)NC1=O [Compound A401, (S)-3-deuterium-3-(4-((2-fluoro-5-(morpholinomethyl)benzyl)amino)-1-oxoisoindolin-2-yl)piperidine-2,6-dione] | ≥ 50% | < 300 nM | – | – |
| O=C1CCC(N2Cc3c(NCc4ccc(CN5CCOCC5)cc4)cc(F)cc3C2=O)C(=O)N1 (centres unmarked) [Compound A405, 3-(6-fluoro-4-((4-(morpholinomethyl)benzyl)amino)-1-oxoisoindolin-2-yl)piperidine-2,6-dione] | < 50% | ≥ 300 nM | – | – |
| [2H]C1(N2Cc3c(OCc4ccc(CN5CCOCC5)cc4F)cccc3C2=O)CCC(=O)NC1=O (centres unmarked) [Compound A425, 3-deuterium-3-(4-((2-fluoro-5-(morpholinomethyl)benzyl)oxy)-1-oxoisoindolin-2-yl)piperidine-2,6-dione] | – | – | ≥50% | < 300 nM |
| [2H]C1(N2Cc3c(NCc4ccc(CN5CCOCC5)cc4F)cccc3C2=O)CCC(=O)NC1=O (centres unmarked) [Compound A426] | – | – | ≥50% | < 300 nM |
